Laboratory results reported in article PMC6717735, “Therapeutic Effect of pHLIP-mediated CEACAM6 Gene Silencing in Lung Adenocarcinoma” (Scientific Reports, 2019).

What was measured:
A549 tumours [1] = experiment: Ki-67 immunostaining of xenograft tumours (proliferation); format: in vivo, BALB/c nude mice; settings: n = 5 tumours/group
Protocol: Mice were killed by carbon dioxide asphyxiation. Staining was performed in formalin-fixed, paraffin-embedded tumour sections (4-μm thickness). Fully automated immunostaining was achieved using a BenchMark XT autostainer (Ventana Medical Systems Inc., Tucson, AZ, USA). The following antibodies were used: monoclonal mouse anti-human CEACAM6 (9A6, 1:4,000; Santa Cruz Biotechnology Inc.), anti-CC3 (1:100, BioCare Medical, Pacheco, CA, USA), and anti-Ki-67 (1:100, VP-K452; Vector Laboratory, Burlington, Canada). The number of positive cells per tumour area was quantified.

A549 tumours [2] = experiment: A549 xenograft tumour growth; format: in vivo, BALB/c nude mice; settings: compared with vehicle-treated mice; for reduction in tumour growth: n = 5
Protocol: We first assessed the knockdown efficacy of delivered […]6 in vivo. For in vivo analysis, BALB/c nude mice were subcutaneously injected with 1.2 × 10^7 A549 cells. Two weeks after tumour initiation, […]6 was injected into the mice via the tail vein with saline used as a negative control. To determine the optimal amount of […]6 for injection, two groups of mice (n = 5 mice/group) were injected with different doses (2 mg/kg and 4 mg/kg) twice per week for 3 weeks. Because cisplatin is the backbone of lung cancer treatment, cisplatin-treated mice served as the positive control. […] After 3 weeks of treatment, all mice were sacrificed. Next, we assessed the antitumour effects of concurrent chemotherapy and CEACAM6 targeting. […] According to the in vivo results, a dose of 2 mg/kg […]6 was selected for combination treatment. […] Tumour volume was measured every 2-3 days. […] None of the mice included in the therapeutic experiments experienced overt body weight loss or organ damage over the treatment period (Supplementary Fig. 5a,b). All animal work was performed in accordance with a protocol approved by the Institutional Animal Care and Use Committee of the Korea Research Institute of Bioscience and Biotechnology. A549 cells were subcutaneously injected into the right flanks of 5-week-old BALB/c athymic nude mice (n = 5 mice/group; 1.2 × 10^7 cells/mouse). Tumour growth was determined by measuring the length (L), width (W), and height (H) with callipers and using the formula V = (L × W × H) × 0.5.

Q: What does the source list for N.N.[Cl][Pt][Cl] [cisplatin]?
A: cell proliferation in tumours (Ki-67 staining) (A549 tumours [1]; combination study, after 3 weeks of systemic therapy): 18.4%; proliferation level (Ki-67 staining) (A549 tumours [1]; single-agent study, tumours harvested after 3 weeks): 11.2%; reduction in tumour growth (A549 tumours [2]; 2 mg/kg intraperitoneally 3 times/week for 3 weeks): 46.7%; reduction in tumour growth (A549 tumours [2]; 2 mg/kg intraperitoneally twice/week for 3 weeks): 35.0%; reduction in tumour volume (A549 tumours [2]; combination study: pHLIP-siCEACAM6 2 mg/kg via tail vein, cisplatin intraperitoneally, twice per week for 3 weeks, n = 5 mice/group): 29.9%
